What was measured:
HL-1 = experiment: cardiomyocyte survival under oxidative or metabolic stress – cell-based, panel, H9c2 and HL-1, H2O2, 2-deoxyglucose, ATP luminescence, SAR follow-up (AID 651642)
H9c2 = experiment: as above
[1] = H9c2/HL-1 cardiomyocyte 2-deoxyglucose damage, run 1, with 2-deoxyglucose
[2] = H9c2/HL-1 cardiomyocyte 2-deoxyglucose damage, run 2, with 2-deoxyglucose
[3] = H9c2/HL-1 cardiomyocyte 2-deoxyglucose damage, run 3, with 2-deoxyglucose
[4] = H9c2/HL-1 cardiomyocyte 2-deoxyglucose damage, run 4, with 2-deoxyglucose
[5] = H9c2/HL-1 cardiomyocyte H2O2 oxidative damage, mean of runs, with H2O2, mean IC50 across panel
[6] = H9c2/HL-1 cardiomyocyte H2O2 oxidative damage, run 1, with H2O2
[7] = H9c2/HL-1 cardiomyocyte H2O2 oxidative damage, run 2, with H2O2
[8] = H9c2/HL-1 cardiomyocyte H2O2 oxidative damage, run 3, with H2O2
[9] = H9c2/HL-1 cardiomyocyte H2O2 oxidative damage, run 4, with H2O2
[10] = H9c2/HL-1 cardiomyocyte 2-deoxyglucose damage, mean of runs, with 2-deoxyglucose, mean IC50 across panel

Structure (SMILES): COc1cc(-c2cc(C(=O)NCC(=O)Nc3ccc(C(C)=O)cc3)c3cc(F)ccc3n2)cc(OC)c1OC
- IC50 (HL-1; [1]): 2.6 µM
- IC50 (HL-1; [2]): 3.39 µM
- IC50 (HL-1; [3]): > 79 µM
- IC50 (HL-1; [4]): > 79 µM
- IC50 (HL-1; [5]): 4.71 µM
- IC50 (HL-1; [6]): 3.18 µM
- IC50 (HL-1; [7]): 10.4 µM
- IC50 (HL-1; [8]): 0.441 µM
- IC50 (HL-1; [9]): 4.84 µM
- IC50 (H9c2; [10]): > 79 µM
- IC50 (H9c2; [1]): > 79 µM
- IC50 (H9c2; [2]): > 79 µM
- IC50 (H9c2; [3]): > 79 µM
- IC50 (H9c2; [4]): > 79 µM
- IC50 (H9c2; [6]): 1.54 µM
- IC50 (H9c2; [7]): 2.4 µM
- IC50 (H9c2; [8]): > 79 µM
- IC50 (H9c2; [9]): > 79 µM

Structure (SMILES): COc1ccc(NC(=O)CNC(=O)c2cc(-c3cc(OC)c(OC)c(OC)c3)nc3ccccc23)cc1
- IC50 (HL-1; [10]): 6.65 µM
- IC50 (HL-1; [1]): 4.04 µM
- IC50 (HL-1; [2]): 4.29 µM
- IC50 (HL-1; [3]): 8.55 µM
- IC50 (HL-1; [4]): 9.7 µM
- IC50 (HL-1; [5]): 7.15 µM
- IC50 (HL-1; [6]): 5.04 µM
- IC50 (HL-1; [7]): 8.88 µM
- IC50 (HL-1; [8]): 7 µM
- IC50 (HL-1; [9]): 7.7 µM
- IC50 (H9c2; [10]): 12.8 µM
- IC50 (H9c2; [1]): 13.8 µM
- IC50 (H9c2; [2]): 15.2 µM
- IC50 (H9c2; [3]): 10.4 µM
- IC50 (H9c2; [4]): 12 µM
- IC50 (H9c2; [6]): 3.97 µM
- IC50 (H9c2; [7]): 4.53 µM
- IC50 (H9c2; [8]): > 79 µM
- IC50 (H9c2; [9]): > 79 µM

Structure (SMILES): COc1cccc(CNC(=O)CNC(=O)c2cc(-c3cc(OC)c(OC)c(OC)c3)nc3ccccc23)c1
- IC50 (HL-1; [10]): 15.2 µM
- IC50 (HL-1; [1]): 9.87 µM
- IC50 (HL-1; [2]): 10.8 µM
- IC50 (HL-1; [3]): 17.7 µM
- IC50 (HL-1; [4]): 22.6 µM
- IC50 (HL-1; [6]): > 79 µM
- IC50 (HL-1; [7]): 13.1 µM
- IC50 (HL-1; [8]): 6.25 µM
- IC50 (HL-1; [9]): 7.97 µM
- IC50 (H9c2; [1]): 38.6 µM
- IC50 (H9c2; [2]): 40.8 µM
- IC50 (H9c2; [3]): > 79 µM
- IC50 (H9c2; [4]): > 79 µM
- IC50 (H9c2; [5]): 5.76 µM
- IC50 (H9c2; [6]): 5.74 µM
- IC50 (H9c2; [7]): 7.73 µM
- IC50 (H9c2; [8]): 4.38 µM
- IC50 (H9c2; [9]): 5.17 µM

Structure (SMILES): COc1ccc2c(c1OC)C(=O)N1c3ccccc3C(=O)N(Cc3ccccc3F)C21 (stereo not given)
- IC50 (HL-1; [10]): 7.16 µM
- IC50 (HL-1; [1]): 2.26 µM
- IC50 (HL-1; [2]): 2.31 µM
- IC50 (HL-1; [3]): 8.41 µM
- IC50 (HL-1; [4]): 15.7 µM
- IC50 (HL-1; [5]): > 79 µM
- IC50 (HL-1; [6]): > 79 µM
- IC50 (HL-1; [7]): > 79 µM
- IC50 (HL-1; [8]): > 79 µM
- IC50 (HL-1; [9]): > 79 µM
- IC50 (H9c2; [10]): 34.3 µM
- IC50 (H9c2; [1]): 36.6 µM
- IC50 (H9c2; [2]): 37.9 µM
- IC50 (H9c2; [3]): 31.3 µM
- IC50 (H9c2; [4]): 31.6 µM
- IC50 (H9c2; [6]): 1.35 µM
- IC50 (H9c2; [7]): 2.03 µM
- IC50 (H9c2; [8]): > 79 µM
- IC50 (H9c2; [9]): > 79 µM

Structure (SMILES): COc1cc(-c2cc(C(=O)NCC(=O)Nc3ccc(C(C)=O)cc3)c3cc(C)ccc3n2)cc(OC)c1OC
- IC50 (HL-1; [10]): 4.22 µM
- IC50 (HL-1; [1]): 2.65 µM
- IC50 (HL-1; [2]): 2.65 µM
- IC50 (HL-1; [3]): 5.75 µM
- IC50 (HL-1; [4]): 5.85 µM
- IC50 (HL-1; [5]): 3.93 µM
- IC50 (HL-1; [6]): 3.02 µM
- IC50 (HL-1; [7]): 3.88 µM
- IC50 (HL-1; [8]): 3.17 µM
- IC50 (HL-1; [9]): 5.63 µM
- IC50 (H9c2; [10]): 5.83 µM
- IC50 (H9c2; [1]): 6.75 µM
- IC50 (H9c2; [2]): 8.1 µM
- IC50 (H9c2; [3]): 3.5 µM
- IC50 (H9c2; [4]): 4.96 µM
- IC50 (H9c2; [5]): 1.67 µM
- IC50 (H9c2; [6]): 2.04 µM
- IC50 (H9c2; [7]): 2.05 µM
- IC50 (H9c2; [8]): 1.09 µM
- IC50 (H9c2; [9]): 1.49 µM

Structure (SMILES): CCOC(=O)c1cccc(NC(=O)c2cc(-c3cc(OC)c(OC)c(OC)c3)nc3ccc(OC)cc23)c1
- IC50 (HL-1; [1]): 2.77 µM
- IC50 (HL-1; [2]): 2.79 µM
- IC50 (HL-1; [3]): > 79 µM
- IC50 (HL-1; [4]): > 79 µM
- IC50 (HL-1; [6]): 4.24 µM
- IC50 (HL-1; [7]): 4.51 µM
- IC50 (HL-1; [8]): > 79 µM
- IC50 (HL-1; [9]): 2.3 µM
- IC50 (H9c2; [1]): > 79 µM
- IC50 (H9c2; [2]): 24.6 µM
- IC50 (H9c2; [3]): 35.6 µM
- IC50 (H9c2; [4]): 44.4 µM
- IC50 (H9c2; [5]): 2.56 µM
- IC50 (H9c2; [6]): 2.7 µM
- IC50 (H9c2; [7]): 2.92 µM
- IC50 (H9c2; [8]): 2.05 µM
- IC50 (H9c2; [9]): 2.56 µM

Structure (SMILES): CCOC(=O)c1cccc(NC(=O)c2cc(-c3cc(OC)c(OC)c(OC)c3)nc3ccc(C)cc23)c1
- IC50 (HL-1; [1]): 2.03 µM
- IC50 (HL-1; [2]): 2.12 µM
- IC50 (HL-1; [3]): > 79 µM
- IC50 (HL-1; [4]): > 79 µM
- IC50 (HL-1; [6]): > 79 µM
- IC50 (HL-1; [7]): 2.63 µM
- IC50 (HL-1; [8]): 1.79 µM
- IC50 (HL-1; [9]): 2.94 µM
- IC50 (H9c2; [10]): > 79 µM
- IC50 (H9c2; [1]): > 79 µM
- IC50 (H9c2; [2]): > 79 µM
- IC50 (H9c2; [3]): > 79 µM
- IC50 (H9c2; [4]): > 79 µM
- IC50 (H9c2; [5]): 2.96 µM
- IC50 (H9c2; [6]): 2.98 µM
- IC50 (H9c2; [7]): 3.24 µM
- IC50 (H9c2; [8]): 2.59 µM
- IC50 (H9c2; [9]): 3.01 µM

Structure (SMILES): COc1ccc2nc(-c3cc(OC)c(OC)c(OC)c3)cc(C(=O)NCC(=O)Nc3cccc(C(C)=O)c3)c2c1
- IC50 (HL-1; [10]): 2.9 µM
- IC50 (HL-1; [1]): 1.27 µM
- IC50 (HL-1; [2]): 3.22 µM
- IC50 (HL-1; [3]): 3.47 µM
- IC50 (HL-1; [4]): 3.64 µM
- IC50 (HL-1; [5]): 5.12 µM
- IC50 (HL-1; [6]): 4.48 µM
- IC50 (HL-1; [7]): 6.94 µM
- IC50 (HL-1; [8]): 4.08 µM
- IC50 (HL-1; [9]): 5 µM
- IC50 (H9c2; [10]): 2.63 µM
- IC50 (H9c2; [1]): 3.05 µM
- IC50 (H9c2; [2]): 3.53 µM
- IC50 (H9c2; [3]): 1.89 µM
- IC50 (H9c2; [4]): 2.03 µM
- IC50 (H9c2; [6]): 0.761 µM
- IC50 (H9c2; [7]): 0.868 µM
- IC50 (H9c2; [8]): > 79 µM
- IC50 (H9c2; [9]): 0.324 µM

Structure (SMILES): CCOC(=O)c1ccccc1NC(=O)c1cc(-c2cc(OC)c(OC)c(OC)c2)nc2ccccc12
- IC50 (HL-1; [1]): 2.72 µM
- IC50 (HL-1; [2]): 3 µM
- IC50 (HL-1; [3]): > 79 µM
- IC50 (HL-1; [4]): > 79 µM
- IC50 (HL-1; [6]): > 79 µM
- IC50 (HL-1; [7]): > 79 µM
- IC50 (HL-1; [8]): > 79 µM
- IC50 (HL-1; [9]): 6.51 µM
- IC50 (H9c2; [10]): > 79 µM
- IC50 (H9c2; [1]): > 79 µM
- IC50 (H9c2; [2]): > 79 µM
- IC50 (H9c2; [3]): > 79 µM
- IC50 (H9c2; [4]): > 79 µM
- IC50 (H9c2; [6]): 4.3 µM
- IC50 (H9c2; [7]): 4.52 µM
- IC50 (H9c2; [8]): > 79 µM
- IC50 (H9c2; [9]): > 79 µM

Reference: PubChem BioAssay AID651642 (Sanford-Burnham Center for Chemical Genomics, 2012)
